Assay results reported in ChEMBL document CHEMBL6134832, “Expanding the utilization of binding pockets proves to be effective for noncovalent small molecule inhibitors against SARS-CoV-2 Mpro” (Eur J Med Chem, 2025).

Experiments:
[1] = Metabolic stability in human liver microsomes assessed as half life; type: ADME, Microsome
[2] = Half life in mouse at 1 mg/kg, iv; type: ADME, organism-based; conditions: in vivo
SARS-CoV-2 [3] = assay: Antiviral activity against SARS-CoV-2 delta IM2175251 infected in African green monkey Vero E6 cells assessed as inhibition of virus induced cytopathic effect measured after 72 hrs by cytometric analysis; type: functional, organism-based; conditions: Severe acute respiratory syndrome coronavirus 2, delta IM2175251, Vero C1008, 72 h
[4] = Inhibition of full-length SARS-CoV-2 MPro expressed in Escherichia coli BL21 (DE3) using MCA-AVLQSGFR-Lys (Dnp)-Lys-NH2 as substrate pre-incubated for 30 mins followed by substrate addition and measured after 20 mins by FRET assay; set-up: species or system Severe acute respiratory syndrome coronavirus 2
CYP3A4/CYP3A5 = CYP3A4/CYP3A5 (Homo sapiens, UniProt P08684+P20815); assay: Inhibition of CYP3A4/CYP3A5 (unknown origin)
[5] = Cytotoxicity against African green monkey Vero E6 cells assessed as cell viability measured after 72 hrs by Celltiter-glo luminescent cell viability assay; type: toxicity, cell-based, Vero C1008; conditions: chlorocebus sabaeus
SARS-CoV-2 [6] = assay: Antiviral activity against SARS-CoV-2 XBB.1 infected in African green monkey Vero E6 cells assessed as inhibition of virus induced cytopathic effect measured after 72 hrs by cytometric analysis; type: functional, organism-based; conditions: Severe acute respiratory syndrome coronavirus 2, XBB.1, Vero C1008, 72 h
[7] = Apparent permeability across basolateral to apical side in human Caco-2 cells
SARS-CoV-2 [8] = assay: Antiviral activity against SARS-CoV-2 Omicron BA.5 infected in African green monkey Vero E6 cells assessed as inhibition of virus induced cytopathic effect measured after 72 hrs by cytometric analysis; type: functional, organism-based; conditions: Severe acute respiratory syndrome coronavirus 2, Omicron BA.5, Vero C1008, 72 h
[9] = Oral bioavailability in mouse; type: ADME, organism-based; conditions: in vivo
[10] = biological target: Voltage-gated inwardly rectifying potassium channel KCNH2 (Homo sapiens, UniProt Q12809)
[11] = Metabolic stability in mouse liver microsomes assessed as half life; type: ADME, Microsome
[12] = AUC in po dosed mouse; type: ADME, organism-based; conditions: in vivo
[13] = Apparent permeability across apical to basolateral side in human Caco-2 cells
[14] = Half life in mouse at 10 mg/kg, po; type: ADME, organism-based; conditions: in vivo
SARS-CoV-2 [15] = assay: Antiviral activity against wild type SARS-CoV-2 infected in African green monkey Vero E6 cells assessed as inhibition of virus induced cytopathic effect measured after 72 hrs by cytometric analysis; type: functional, organism-based; conditions: Severe acute respiratory syndrome coronavirus 2, Vero C1008, 72 h
SARS-CoV-2 [16] = assay: Antiviral activity against SARS-CoV-2 EG.5 infected in African green monkey Vero E6 cells assessed as inhibition of virus induced cytopathic effect measured after 72 hrs by cytometric analysis; type: functional, organism-based; conditions: Severe acute respiratory syndrome coronavirus 2, EG.5, Vero C1008, 72 h

Sequence of Voltage-gated inwardly rectifying potassium channel KCNH2 (Q12809 whole entry): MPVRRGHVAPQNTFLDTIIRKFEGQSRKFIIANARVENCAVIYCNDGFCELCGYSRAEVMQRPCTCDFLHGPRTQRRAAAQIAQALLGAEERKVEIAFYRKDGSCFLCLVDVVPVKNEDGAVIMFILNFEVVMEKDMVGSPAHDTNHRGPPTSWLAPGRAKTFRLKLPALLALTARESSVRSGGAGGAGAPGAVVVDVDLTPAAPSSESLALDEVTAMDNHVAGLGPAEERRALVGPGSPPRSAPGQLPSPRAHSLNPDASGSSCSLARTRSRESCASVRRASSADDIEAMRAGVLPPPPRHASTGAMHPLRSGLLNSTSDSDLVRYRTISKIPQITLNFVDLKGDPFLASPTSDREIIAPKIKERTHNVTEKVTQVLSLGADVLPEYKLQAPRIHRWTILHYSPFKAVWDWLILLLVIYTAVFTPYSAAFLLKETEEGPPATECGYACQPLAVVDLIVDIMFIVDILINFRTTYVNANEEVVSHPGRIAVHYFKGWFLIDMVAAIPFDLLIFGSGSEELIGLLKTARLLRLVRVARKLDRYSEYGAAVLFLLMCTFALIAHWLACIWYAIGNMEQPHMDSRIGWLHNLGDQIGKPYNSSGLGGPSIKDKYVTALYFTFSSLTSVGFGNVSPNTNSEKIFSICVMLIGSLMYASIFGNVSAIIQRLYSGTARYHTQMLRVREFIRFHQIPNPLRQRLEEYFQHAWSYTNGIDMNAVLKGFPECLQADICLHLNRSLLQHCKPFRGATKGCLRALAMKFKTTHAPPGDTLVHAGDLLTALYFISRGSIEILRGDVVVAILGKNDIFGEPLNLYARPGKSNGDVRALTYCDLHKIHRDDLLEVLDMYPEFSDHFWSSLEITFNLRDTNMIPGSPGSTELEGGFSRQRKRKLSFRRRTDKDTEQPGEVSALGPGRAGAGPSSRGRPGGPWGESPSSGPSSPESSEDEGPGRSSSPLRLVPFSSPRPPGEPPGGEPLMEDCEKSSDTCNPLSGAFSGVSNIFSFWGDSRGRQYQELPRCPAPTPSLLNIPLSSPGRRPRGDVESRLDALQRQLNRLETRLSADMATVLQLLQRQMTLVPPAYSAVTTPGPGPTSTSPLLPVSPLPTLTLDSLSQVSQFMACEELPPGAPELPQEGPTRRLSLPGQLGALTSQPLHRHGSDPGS

Row | Structure (SMILES) | half-life [1] [h] | half-life [2] [h] | EC50 (SARS-CoV-2 [3]) [nM] | IC50 [4] [nM] | IC50 (CYP3A4/CYP3A5) [nM] | CC50 at 72 h [5] [nM] | EC50 (SARS-CoV-2 [6]) [nM] | Papp B→A [7] [×10⁻⁶ cm/s] | EC50 (SARS-CoV-2 [8]) [nM] | bioavailability [9] [%] | IC50 [10] [nM] | half-life [11] [h] | AUC [12] [ng·h/mL] | Papp A→B [13] [×10⁻⁶ cm/s] | half-life [14] [h] | EC50 (SARS-CoV-2 [15]) [nM] | EC50 (SARS-CoV-2 [16]) [nM]
1 | Cc1cncc(-n2c(=O)[nH]/c(=N\c3cc4cn(C)nc4cc3Cl)n(Cc3cc(Cl)c(F)cc3Oc3ccc(C#N)c(F)c3)c2=O)c1 | 2.02 | 2.2 | 99.3 | 9.1 | 11300 | > 100000 | 33.4 | 2.8 | 11.1 | 115 | 8750 | 0.892 | 5620 | 0.2 | 1.7 | 54 | 31.6
2 | COc1cncc(-n2c(=O)[nH]/c(=N\c3cc4cn(C)nc4cc3Cl)n(Cc3cc(F)c(F)cc3F)c2=O)c1 | – | – | – | 52.9 | – | > 100000 | – | – | – | – | – | – | – | – | – | – | –
3 | COCCOc1cncc(-n2c(=O)[nH]/c(=N\c3cc4cn(C)nc4cc3Cl)n(Cc3cc(Cl)c(F)cc3F)c2=O)c1 | 1.42 | 1.7 | 45.9 | 18.3 | > 50000 | > 100000 | 33.5 | 29.2 | 35.6 | 101 | > 30000 | 1.28 | 39500 | 2.92 | 2.2 | 68.9 | 54.1
4 | Cc1cncc(-n2c(=O)[nH]/c(=N\c3cc4cn(C)nc4cc3Cl)n(Cc3cc(Cl)c(F)c(Oc4ccc(F)cc4)c3)c2=O)c1 | – | 6 | 734 | 37.4 | 48200 | > 100000 | 707 | – | 790 | 129 | > 30000 | – | 333000 | – | 6.8 | 858 | 858
5 | Cc1cncc(-n2c(=O)[nH]/c(=N\c3cc4cn(C)nc4cc3Cl)n(Cc3cc(Cl)c(F)cc3Sc3cccc(F)c3)c2=O)c1 | 1.43 | 6 | 326 | 11.8 | 30700 | > 100000 | 336 | 3.38 | 180 | 60.5 | > 30000 | 2.3 | 30000 | 1.56 | 6 | 365 | 337
6 | Cn1cc2cc(/N=c3\[nH]c(=O)n(-c4cncc(O[C@H]5CCOC5)c4)c(=O)n3Cc3cc(Cl)c(F)cc3F)c(Cl)cc2n1 | 1.72 | 1.6 | 27 | 13.5 | > 50000 | > 100000 | 21.9 | 32.7 | 20.6 | 87 | > 30000 | 3.85 | 37400 | 1.36 | 2 | 9.4 | 8.2
7 | COCCOc1cncc(-n2c(=O)[nH]/c(=N\c3cc4cn(C)nc4cc3Cl)n(Cc3cc(C#N)ccc3C)c2=O)c1 | 5.92 | 1.2 | 43 | 19.4 | > 50000 | > 100000 | 13.7 | 24.1 | 6.8 | 44.1 | > 30000 | 4.89 | 9220 | 1.57 | 2.8 | 31.1 | 13.7
8 | COc1cncc(-n2c(=O)[nH]/c(=N\c3cc4cn(C)nc4cc3Cl)n(Cc3cc(Cl)c(F)cc3Oc3ccc(F)cc3)c2=O)c1 | 1.99 | 4.6 | 364 | 50.6 | 6870 | > 100000 | 241 | 0.94 | 303 | 98 | 16000 | 1.59 | 46700 | 0.11 | 5.1 | 241 | 82.2
9 | Cc1cncc(-n2c(=O)[nH]/c(=N\c3cc4cn(C)nc4cc3Cl)n(Cc3cc(C#N)ccc3Sc3ccc(Cl)s3)c2=O)c1 | – | 2.48 | 65.3 | 12.3 | – | > 100000 | 57.9 | – | 21.8 | 93 | – | – | 61400 | – | 2.73 | 76.3 | 63.6
10 | Cn1cc2cc(/N=c3\[nH]c(=O)n(-c4cncc(O[C@H]5CCOC5)c4)c(=O)n3Cc3cc(F)c(F)cc3F)c(Cl)cc2n1 | 2.34 | 1.5 | 36.8 | – | – | > 100000 | 69.9 | – | 34 | 108 | – | 4.19 | 25600 | – | 1.9 | 33.8 | 33.8
